Experimental data: US5614408A, “Monoclonal antibodies to potato, tomato, and eggplant glycoalkaloids and assays for the same” (priority 1995, dated 1997)
Entries after “also recorded” stand apart in the source; their conditions may differ.

Experiments:
Format in all cases: binding, mouse
[1] = tested on: monoclonal antibody Sol-59; assay: competitive inhibition ELISA (c-ELISA), monoclonal antibody Sol-59; settings: Sol-59 (IgG2a); ± one standard deviation
Description: (§1) Five, 6 month old BALB/c mice were injected with 50 μl of the solanidine-KLH conjugate mixed 1:1 with Ribi adjuvant (Ribi Immunochem Research Inc., Hamilton, Mont.). The mice received half the dose intraperitoneally and half intramuscularly every other week for a total of three injections. One month later, and 4 days prior to fusion, a selected mouse was given an intraperitoneal injection of 50 μl of solanidine-KLHconjugate in sterile saline. The spleen was removed and the splenocytes fused with SP2/O myeloma cells as described by Stanker et al. (1986, J. Immunol., 136:4174-4180), the contents of which are incorporated by reference herein. The fused cells were plated over 30 96-well microculture plates previously coated with mouse peritoneal exudate cells (macrophage) and grown under conditions described by Elissalde et al. (1993, J. Agric. Food Chem., 41:2167-2171), the contents of which are also incorporated by reference herein.
(§2) db-ELISA. A modification of a direct-binding ELISA described by Stanker et al. (1993, J. Agric. Food Chem., 41:1332-1336), the contents of which are incorporated by reference herein, was used to screen the culture fluids from the growing hybridomas for antibodies to solanidine. Microtiter plates (Nunc Maxisorb, Roskilde, Denmark; or Costar high binding plates, Costar Corp., Wilmington, Mass.) were coated with SOL-BSA by addition of 100 μl/well of a 1 μg/ml solution of SOL-BSA in distilled water. The SOL-BSA was incubated in uncovered plates at 37° C. for 18 hr to evaporate the liquid and allow the SOL-BSA to coat the bottom of the microtiter wells. The "coated" plates were then stored in sealed plastic bags at 4° C. and used within 2 weeks. Nonreacted sites on the plates were blocked by adding 400 μl of a 3% solution of nonfat dry milk (NFDM) in assay buffer (0.1M Tris, 0.15M NaCl, 10 mg/ml nonfat dry milk, 0.001% Tween 20, 0.02% sodium azide) and incubating the plates at room temperature for 1 hr. The blocking solution was then discarded and 100 μl of the hybridoma supernatant(s) or anti-solanidine Mab (from ascites fluid) was added, and the plates incubated for 1 hr at 37° C. After incubation, the plates were washed with a solution of 0.05% TWEEN-20 in water, and peroxidase conjugated goat anti-mouse antiserum (Sigma Inc., St. Louis, Mo.), diluted 1:500 in assay buffer, was then added to each well. Following a second 1 hr incubation at 37° C., the plates were washed as described above. Finally, the substrate, 2,2'-azino-bis(ethylbenzthiazole-6-sulfonic acid) (ABTS), was added. Absorbance was measured at 405 nm and the resulting data analyzed by computer using an Excel (Microsoft, Redmond, Wash.) spreadsheet program.
(§3) c-ELISA. The competitive inhibition ELISA for solanidine and other glycoalkaloids was carried out as previously described for other compounds by Stanker et al. (1993, ibid). Briefly, to each well of an antigen (glycoalkaloid or aglycone) coated, non-fat-milk-blocked, microtiter plate prepared as described in the db-ELISA was added 100 μl of assay buffer. Competitors (free solanidine and other glycoalkaloids and aglycones, and four structurally related steroids cholesterol, digitonin, βsitosterol, and stigmasterol, shown in Table 1) dissolved in 100 μl of assay buffer were added to the microassay plate and serially diluted (a 2-fold series). Next, 100 μl of assay buffer containing a predetermined amount of anti-solanidine monoclonal antibody prepared above was added to each well. The amount of anti-alkaloid antibody added was the concentration (dilution from tissue culture supernatant) resulting in approximately 50% of maximum binding or signal in a direct-binding ELISA where no competitor was present. The plates were sealed with plastic wrap, incubated for 1 hr at 37° C., and then processed as described in the db-ELISA to detect bound antibody. […]

[2] = tested on: monoclonal antibody Sol-129; assay: competitive inhibition ELISA (c-ELISA), monoclonal antibody Sol-129; settings: for IC50: Sol-129 (IgG1), ± one standard deviation
Description: as §1, §2, §3

[3] = tested on: monoclonal antibody Sol-91; assay: competitive inhibition ELISA (c-ELISA), monoclonal antibody Sol-91; settings: Sol-91 (IgG2a); ± one standard deviation
Description: as §1, §2, §3

[4] = tested on: monoclonal antibody Sol-54; assay: competitive inhibition ELISA (c-ELISA), monoclonal antibody Sol-54; settings: Sol-54 (IgG2a); ± one standard deviation
Description: as §1, §2, §3

[5] = tested on: eleven monoclonal antibodies; assay: competitive inhibition ELISA (c-ELISA), all eleven monoclonal antibodies; settings: in words
Description: as §1, §2
c-ELISA. […]

[6] = tested on: monoclonal antibody Sol-106; assay: competitive inhibition ELISA (c-ELISA), monoclonal antibody Sol-106; settings: Sol-106 (IgG2a); ± one standard deviation
Description: as §1, §2, §3

[7] = tested on: monoclonal antibody Sol-71; assay: competitive inhibition ELISA (c-ELISA), monoclonal antibody Sol-71; settings: Sol-71 (IgG2a); ± one standard deviation
Description: as §1, §2, §3

[8] = tested on: monoclonal antibody Sol-68; assay: competitive inhibition ELISA (c-ELISA), monoclonal antibody Sol-68; settings: Sol-68 (IgG1); ± one standard deviation
Description: as §1, §2, §3

[9] = tested on: monoclonal antibody Sol-67; assay: competitive inhibition ELISA (c-ELISA), monoclonal antibody Sol-67; settings: Sol-67 (IgG1); ± one standard deviation
Description: as §1, §2, §3

[10] = tested on: monoclonal antibody Sol-8; assay: competitive inhibition ELISA (c-ELISA), monoclonal antibody Sol-8; settings: Sol-8 (IgG2a); ± one standard deviation
Description: as §1, §2, §3

[11] = tested on: monoclonal antibody Sol-55; assay: competitive inhibition ELISA (c-ELISA), monoclonal antibody Sol-55; settings: Sol-55 (IgG2a); ± one standard deviation
Description: as §1, §2, §3

[12] = tested on: monoclonal antibody Sol-48; assay: competitive inhibition ELISA (c-ELISA), monoclonal antibody Sol-48; settings: Sol-48 (IgG2a); ± one standard deviation
Description: as §1, §2, §3

| SMILES | IC50 [1] | IC50 [2] | IC50 [3] | IC50 [4] | cross-reaction of the antibodies [5] | IC50 [6] | IC50 [7] | IC50 [8] | IC50 [9] | IC50 [10] | IC50 [11] | relative affinity of Sol-129 ([2]; Sol-129, in words) | IC50 [12] | binding by Sol-129 ([2]; Sol-129, in words) |
| --- | --- | --- | --- | --- | --- | --- | --- | --- | --- | --- | --- | --- | --- | --- |
| CC(C)CCC[C@@H](C)[C@H]1CC[C@H]2[C@@H]3CC=C4C[C@@H](O)CC[C@]4(C)[C@H]3CC[C@]12C [cholesterol] | nc (no competition at 10,000 ppb) | nc (no competition at 10,000 ppb) | nc (no competition at 10,000 ppb) | nc (no competition at 10,000 ppb) | None of the eleven antibodies cross-reacted | nc (no competition at 10,000 ppb) | nc (no competition at 10,000 ppb) | nc (no competition at 10,000 ppb) | nc (no competition at 10,000 ppb) | nc (no competition at 10,000 ppb) | nc (no competition at 10,000 ppb) | – | – | – |
| C[C@@H]1CC[C@@]2(OC1)O[C@H]1[C@@H](O)[C@H]3[C@@H]4CC[C@H]5C[C@@H](O[C@@H]6O[C@H](CO)[C@H](O[C@@H]7O[C@H](CO)[C@@H](O)[C@H](O[C@@H]8OC[C@@H](O)[C@H](O)[C@H]8O)[C@H]7O[C@@H]7O[C@H](CO)[C@H](O)[C@H](O[C@@H]8O[C@H](CO)[C@@H](O)[C@H](O)[C@H]8O)[C@H]7O)[C@H](O)[C@H]6O)[C@H](O)C[C@]5(C)[C@H]4CC[C@]3(C)[C@H]1[C@@H]2C [digitonin] | nc (no competition at 10,000 ppb) | nc (no competition at 10,000 ppb) | nc (no competition at 10,000 ppb) | nc (no competition at 10,000 ppb) | None of the eleven antibodies cross-reacted | nc (no competition at 10,000 ppb) | nc (no competition at 10,000 ppb) | nc (no competition at 10,000 ppb) | nc (no competition at 10,000 ppb) | nc (no competition at 10,000 ppb) | nc (no competition at 10,000 ppb) | – | – | – |
| CC[C@H](/C=C/[C@@H](C)[C@H]1CC[C@H]2[C@@H]3CC=C4C[C@@H](O)CC[C@]4(C)[C@H]3CC[C@]12C)C(C)C [stigmasterol] | nc (no competition at 10,000 ppb) | nc (no competition at 10,000 ppb) | nc (no competition at 10,000 ppb) | nc (no competition at 10,000 ppb) | None of the eleven antibodies cross-reacted | nc (no competition at 10,000 ppb) | nc (no competition at 10,000 ppb) | nc (no competition at 10,000 ppb) | nc (no competition at 10,000 ppb) | nc (no competition at 10,000 ppb) | nc (no competition at 10,000 ppb) | – | – | – |
| C[C@H]1CC[C@@H]2[C@@H](C)[C@H]3[C@H](C[C@H]4[C@@H]5CC=C6C[C@@H](O[C@@H]7O[C@H](CO)[C@H](O)[C@H](O[C@@H]8O[C@H](CO)[C@@H](O)[C@H](O)[C@H]8O)[C@H]7O[C@@H]7O[C@@H](C)[C@H](O)[C@@H](O)[C@H]7O)CC[C@]6(C)[C@H]5CC[C@]34C)N2C1 [α-solanine] | 35 ± 8 ppb | 2.6 ± 0.25 ppb | 104 ± 18 ppb | 215 ± 32 ppb | – | 49 ± 8 ppb | nc (no competition at 10,000 ppb) | nc (no competition at 10,000 ppb) | 27.8 ppb | 253 ± 64 ppb | 118 ± 18 ppb | high affinity | 436 ± 135 ppb | – |
| C[C@H]1CC[C@]2(NC1)O[C@H]1C[C@H]3[C@@H]4CC[C@H]5C[C@@H](O[C@@H]6O[C@H](CO)[C@H](O[C@@H]7O[C@H](CO)[C@@H](O)[C@H](O[C@@H]8OC[C@@H](O)[C@H](O)[C@H]8O)[C@H]7O[C@@H]7O[C@H](CO)[C@@H](O)[C@H](O)[C@H]7O)[C@H](O)[C@H]6O)CC[C@]5(C)[C@H]4CC[C@]3(C)[C@H]1[C@@H]2C [α-tomatine] | nc (no competition at 10,000 ppb) | 5.4 ± 3.5 ppb | nc (no competition at 10,000 ppb) | nc (no competition at 10,000 ppb) | – | nc (no competition at 10,000 ppb) | nc (no competition at 10,000 ppb) | nc (no competition at 10,000 ppb) | nc (no competition at 10,000 ppb) | nc (no competition at 10,000 ppb) | nc (no competition at 10,000 ppb) | approximately the same affinity as the potato glycoalkaloids | nc (no competition at 10,000 ppb) | specifically bound; also recorded: Sol-129 was the only antibody capable of binding |
| CC[C@H](CC[C@@H](C)[C@H]1CC[C@H]2[C@@H]3CC=C4C[C@@H](O)CC[C@]4(C)[C@H]3CC[C@]12C)C(C)C [β-sitosterol] | nc (no competition at 10,000 ppb) | nc (no competition at 10,000 ppb) | nc (no competition at 10,000 ppb) | nc (no competition at 10,000 ppb) | None of the eleven antibodies cross-reacted | nc (no competition at 10,000 ppb) | nc (no competition at 10,000 ppb) | nc (no competition at 10,000 ppb) | nc (no competition at 10,000 ppb) | nc (no competition at 10,000 ppb) | nc (no competition at 10,000 ppb) | – | – | – |
